From a melting point compilation (Tetko et al.; mined from patent text by program, amines drawn as free bases though some values may be those of a salt)

**Q.** With `Cc1ccc(N=CN(C)C=Nc2ccccn2)c(C)c1` as the compound, how does the melting point read?
**A.** 100 °C

**Q.** Which melting point does the source give for `CS(=O)(=O)c1ccc2c(c1)S(=O)(=O)NCN2CCF` here?
**A.** 193 to 195 °C

**Q.** With `O=C1CC(c2cccc(-c3nc(C(=O)NCCO)co3)c2)=Nc2ccc(-n3cccc3)cc2N1` as the compound, how does the melting point read?
**A.** 242 to 244 °C

**Q.** For `Cn1ncnc1COc1nn2c(-c3ccccc3F)nncc2c1-c1cccc(F)c1`, which melting point is on record?
**A.** 176 °C

**Q.** Which melting point does the source give for `CCCn1cnc2nc(-c3ccc(Cl)cc3)nn2c1=S` here?
**A.** 214 to 216 °C

**Q.** Which melting point does the source give for `Cc1ccccc1-n1c(Cn2cnc3c(N)ncnc32)nc2cccc(Cl)c2c1=O` here?
**A.** 262 to 266 °C

**Q.** Which melting point does the source give for `Cc1cc(-c2ccc(Cl)cc2)nc(-c2ccnc(-c3cccc(S(N)(=O)=O)c3)c2)n1` here?
**A.** 224 °C

**Q.** Which melting point does the source give for `CCC(O)C1C(N2CCN(C)CC2)=Nc2ccccc2N=C1N1CCN(C)CC1` (stereo not given) here?
**A.** 163 to 166 °C

**Q.** Which melting point does the source give for `COc1ccc(CCN(CC(C)C)S(=O)(=O)N[C@@H](Cc2ccc(NC(=O)c3c(Cl)cncc3Cl)cc2)C(=O)O)cc1OC` here?
**A.** 192 °C

**Q.** For `CC1(C)C=Cc2c(ccc3ncccc23)O1`, which melting point is on record?
**A.** 104 to 107 °C

**Q.** For `CC1=CC(OC(=O)c2ccccc2)C(O)C(C)(C)CC1=O` (stereo not given), which melting point is on record?
**A.** 91 to 92 °C

**Q.** For `O=C1C(=O)c2ccccc2C2=C1SCC(CNCc1ccccc1)O2` (stereo not given), which melting point is on record?
**A.** 60 to 62 °C

**Q.** With `CC(C)[C@H](NC(=O)OCc1ccccc1)C(=O)NC(Cc1ccccc1)C(O)C(Cc1ccccc1)NC(=O)[C@@H](NC(=O)OCc1ccccc1)C(C)C` (stereo not given in full) as the compound, how does the melting point read?
**A.** 198 to 200 °C

**Q.** With `Oc1ccc(-c2cc3cc(Cl)ccc3o2)cc1` as the compound, how does the melting point read?
**A.** 216 to 218 °C

**Q.** With `NC(=O)C(Cl)(Cl)CC1(c2cc(Cl)cc(Cl)c2)CO1` (stereo not given) as the compound, how does the melting point read?
**A.** 130 to 133 °C

**Q.** For `Cc1cc2c(cc1Oc1ccc(C(=O)O)cc1)C(C)(C)CCC2(C)C`, which melting point is on record?
**A.** 208 to 210 °C

**Q.** Which melting point does the source give for `CN1CCC(C2(O)c3ccccc3CCn3cccc32)CC1` (stereo not given) here?
**A.** 175 to 177 °C

**Q.** Which melting point does the source give for `O=C(c1ccccc1)c1ccc(OCCOCCO)cc1` here?
**A.** 31 to 32 °C

**Q.** With `O=C(O)CCNC(=O)C(=Cc1ccccc1)CS` as the compound, how does the melting point read?
**A.** 80 °C

**Q.** Which melting point does the source give for `CC(C)(C)OC(=O)N1CCC(N2Cc3cc(Br)ccc3C2=O)CC1` here?
**A.** 179 to 180 °C

**Q.** For `CCCCCCCCCCCCCCCO/N=C(\CCCCCCCCCCCCCCC)CC(=O)O`, which melting point is on record?
**A.** 65 to 67 °C

**Q.** Which melting point does the source give for `CCOC(=O)N1CCN(c2nc(C)nc3c2OCC(=O)N3CC(O)CO)CC1` (stereo not given) here?
**A.** 146 to 148 °C

**Q.** Which melting point does the source give for `Nc1ccc(N2CC(O)C2)nc1` here?
**A.** 148 to 150 °C

**Q.** With `O=C(CBr)N[C@H](CO)Cc1ccccc1` as the compound, how does the melting point read?
**A.** 83 to 85 °C

**Q.** For `Cc1oc(-c2ccccc2)nc1CCOc1cc(CO)on1`, which melting point is on record?
**A.** 115 to 116 °C

**Q.** For `COc1cc2c(cc1OC)CN(CCCOc1ccc(NC(=O)c3cccc(C(=O)c4ccccc4)c3)cc1)CC2`, which melting point is on record?
**A.** > 260 °C

**Q.** Which melting point does the source give for `CC(CNS(=O)(=O)c1ccc(-c2ccccn2)s1)N1CCC(Oc2ccc(F)c(F)c2)CC1` (stereo not given) here?
**A.** 153 to 154 °C

**Q.** For `CC(C)(C(=O)O)c1cn2nc(CCCN3CCN(C(c4ccccc4)c4ccccc4)CC3)ccc2n1`, which melting point is on record?
**A.** 176 to 178 °C

**Q.** With `C=CCOn1cnc2c(Cl)nc(N)nc21` as the compound, how does the melting point read?
**A.** 137 to 139 °C

**Q.** With `COC(=O)c1ccc(C(F)(F)F)cc1N(S(C)(=O)=O)S(C)(=O)=O` as the compound, how does the melting point read?
**A.** 221 to 225 °C

**Q.** Which melting point does the source give for `CN1CCC(c2nc3cccnc3[nH]2)CC1` here?
**A.** 224 to 226 °C

**Q.** Which melting point does the source give for `Fc1cccc(-c2ncc(-c3cnc(-c4ccccc4)[nH]3)cn2)c1` here?
**A.** 240 °C

**Q.** With `CCOC(=O)c1cccc(NC(=O)NC2C(=O)N(CC34CC5CC(CC(C5)C3)C4)c3ccccc3N(c3ccccc3)C2=O)c1` (stereo not given) as the compound, how does the melting point read?
**A.** 220 to 221 °C

**Q.** Which melting point does the source give for `CN(C)C(=O)Sc1ccc(C(=O)c2ccc([N+](=O)[O-])cc2)cc1` here?
**A.** 198 to 199 °C

**Q.** Which melting point does the source give for `CCOC(=O)c1ccc(-c2csc(-c3ccc(Cl)cc3)n2)s1` here?
**A.** 234 to 236 °C

**Q.** With `O=C1c2cccc3cccc(c23)N1CCCl` as the compound, how does the melting point read?
**A.** 136 °C

**Q.** With `CCCCc1nc2c(C(F)(F)F)cccc2c(O)c1C(=O)O` as the compound, how does the melting point read?
**A.** 140 to 141 °C

**Q.** For `CC(C(=O)C(C)(C)CF)n1cncn1` (stereo not given), which melting point is on record?
**A.** 62 to 78 °C

**Q.** Which melting point does the source give for `Nc1nc2c(nc(Br)n2Cc2cccnc2)c(=O)[nH]1` here?
**A.** > 300 °C

**Q.** For `Nc1ncccc1-c1nc2ccc(-c3ccc(CO)cc3)nc2n1-c1ccc(CNC(=O)c2ccccc2)cc1`, which melting point is on record?
**A.** 118 to 120 °C

**Q.** For `Nc1cc2c(Nc3ccc(F)c(Br)c3)ncnc2cn1`, which melting point is on record?
**A.** 269 to 271 °C

**Q.** With `COc1cc(Nc2nc3cccc(-c4ccc(C)c(N)c4)c3o2)cc(OC)c1OC` as the compound, how does the melting point read?
**A.** 188 to 190 °C

**Q.** With `C=CCN1Cc2cscc2Nc2ccccc21` as the compound, how does the melting point read?
**A.** 67 to 69 °C

**Q.** With `COc1ccc2cc(O)c(C(=O)Nc3ccccc3)cc2c1` as the compound, how does the melting point read?
**A.** 230 °C

**Q.** For `COc1cccc(-c2nc(C(=O)c3ccc(N)c(OC)c3)n3ccccc23)c1`, which melting point is on record?
**A.** 210 °C

**Q.** Which melting point does the source give for `COc1ccc(/C(=C\C=C\C(=O)Oc2ccc([N+](=O)[O-])cc2)c2cccnc2)cc1` here?
**A.** 54 to 56 °C

**Q.** With `COc1cc(CC(=O)O)ccc1N(C(N)=O)c1ccccc1C(F)(F)F` as the compound, how does the melting point read?
**A.** 218 to 220 °C

**Q.** For `COc1cccc2c1C=C(C#N)CC2`, which melting point is on record?
**A.** 66 to 68 °C

**Q.** Which melting point does the source give for `C[C@@H]1S[C@@H](C(=O)Nc2ccc(CN3CCCCC3)cc2)Cc2cc3c(cc2C1=O)OCO3` here?
**A.** 162 to 165 °C

**Q.** Which melting point does the source give for `CC12CCC(C1)C1(C)Oc3ccccc3C21C` (stereo not given) here?
**A.** 68 °C
